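Test compounds were applied to cells in 96-well plates for 48 hours at 5 doses. At the GI50, growth is halved. TGI denotes the concentration required for complete inhibition of growth.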
Experiments:
Test in all cases: DTP human tumour cell line panel, 48 h
[1] = system: HOP-62 NSCLC
[2] = system: HOP-92 NSCLC
[3] = system: MDA-N
[4] = system: PC-3 prostate
[5] = system: SK-MEL-2 melanoma
[6] = system: SW-620 colon
[7] = system: TK-10 renal
[8] = system: SN12C renal
[9] = system: HL-60(TB) leukemia
[10] = system: UACC-62 melanoma

SMILES: C=CC(c1ccccc1)C1(O)c2cccc(O)c2C(=O)c2c(O)cccc21 (stereo unspecified)
- TGI [1]: 41.1 µM
- TGI [2]: 30.5 µM
- TGI [3]: 20.7 µM
- TGI [4]: 28.1 µM
- TGI [5]: 26.4 µM
- TGI [6]: 37 µM
- TGI [7]: 38.6 µM

SMILES: COc1ccc(-c2cc(-c3ccco3)c(C#N)c(=S)n2C2OC(CO)C(O)C(O)C2O)cc1 (stereo unspecified)
- TGI [1]: > 100 µM
- TGI [3]: > 100 µM
- TGI [4]: > 100 µM
- TGI [5]: > 100 µM
- TGI [8]: > 100 µM
- TGI [6]: > 100 µM
- TGI [7]: > 100 µM

SMILES: CCn1c(SCC(=O)NNC(=S)Nc2ccc(F)cc2)nc2ccccc2c1=O
- TGI [9]: > 100 µM
- TGI [1]: > 100 µM
- TGI [3]: > 100 µM
- TGI [4]: > 100 µM
- TGI [5]: > 100 µM
- TGI [8]: > 100 µM
- TGI [6]: > 100 µM
- TGI [7]: > 100 µM
- TGI [10]: > 100 µM

SMILES: N#CC1=C(N2CCOCC2)CCC1
- TGI [9]: > 100 µM
- TGI [1]: > 100 µM
- TGI [3]: > 100 µM
- TGI [4]: > 100 µM
- TGI [5]: > 100 µM
- TGI [8]: > 100 µM
- TGI [6]: > 100 µM
- TGI [7]: > 100 µM
- TGI [10]: > 100 µM

SMILES: CCOC(=O)Oc1cc2c(ccn2C)c2c1c1ccccc1n2C(=O)OCC
- TGI [1]: > 100 µM
- TGI [2]: > 100 µM
- TGI [3]: > 100 µM
- TGI [4]: > 100 µM
- TGI [5]: > 100 µM
- TGI [8]: > 100 µM
- TGI [6]: > 100 µM
- TGI [7]: > 100 µM
- TGI [10]: > 100 µM

SMILES: C/C(=C\COP(=O)(O)OP(=O)(O)O)CC/C=C(\C)CNc1ccc([N+](=O)[O-])cc1
- TGI [9]: > 100 µM
- TGI [1]: > 100 µM
- TGI [2]: > 100 µM
- TGI [4]: > 100 µM
- TGI [5]: > 100 µM
- TGI [8]: > 100 µM
- TGI [6]: > 100 µM
- TGI [7]: > 100 µM
- TGI [10]: > 100 µM

SMILES: N#CC1=C(N)Nc2nc3ccccc3n2C1c1ccccc1 (stereo unspecified)
- TGI [9]: > 100 µM
- TGI [1]: > 100 µM
- TGI [4]: > 100 µM
- TGI [5]: > 100 µM
- TGI [8]: > 100 µM
- TGI [6]: > 100 µM
- TGI [10]: > 100 µM

SMILES: COc1ccc(-n2cnc3c(NC(C)(C)C(=O)O)ncnc32)cc1
- TGI [1]: > 100 µM
- TGI [2]: > 100 µM
- TGI [3]: > 100 µM
- TGI [4]: > 100 µM
- TGI [5]: > 100 µM
- TGI [8]: > 100 µM
- TGI [6]: > 100 µM
- TGI [7]: > 100 µM
- TGI [10]: > 100 µM

SMILES: CCOn1cc(C2=C(c3c[nH]c4ccccc34)C(=O)NC2=O)c2ccccc21
- GI50 [9]: < 0.0176 µM
- GI50 [1]: < 0.01 µM
- TGI [1]: 18.5 µM
- GI50 [2]: 23.2 µM
- TGI [2]: 38.8 µM
- GI50 [4]: < 0.0389 µM
- TGI [4]: 17.3 µM
- GI50 [5]: 12.2 µM
- TGI [5]: 25.8 µM
- GI50 [8]: 0.765 µM
- TGI [8]: 14.8 µM
- GI50 [6]: < 0.01 µM
- TGI [6]: 22.7 µM
- GI50 [7]: 0.0322 µM
- TGI [7]: 0.198 µM
- GI50 [10]: < 0.01 µM
- TGI [10]: 20.3 µM

SMILES: CCOC(=O)c1c(NC(=O)c2ccc(OC)cc2)sc2c1CCCC2
- TGI [9]: > 100 µM
- TGI [1]: > 100 µM
- TGI [3]: > 100 µM
- TGI [4]: > 100 µM
- TGI [5]: > 100 µM
- TGI [8]: > 100 µM
- TGI [6]: > 100 µM
- TGI [7]: > 100 µM
- TGI [10]: > 100 µM

SMILES: CC(C)N1CCCOC(c2ccc([N+](=O)[O-])cc2)O1 (stereo unspecified)
- TGI [1]: > 100 µM
- TGI [2]: > 100 µM
- TGI [3]: > 100 µM
- TGI [4]: > 100 µM
- TGI [5]: > 100 µM
- TGI [8]: > 100 µM
- TGI [6]: > 100 µM
- TGI [7]: > 100 µM
- TGI [10]: > 100 µM

SMILES: COc1cc(CCCC(O)COc2cccc3c2C2(O)CCCCCC32)cc(OC)c1 (stereo unspecified)
- TGI [9]: 45.9 µM
- TGI [1]: 28.7 µM
- TGI [2]: 19.9 µM
- TGI [5]: 35.7 µM
- TGI [8]: 31.8 µM
- TGI [6]: 31.6 µM
- TGI [7]: 28.1 µM
- TGI [10]: 30.6 µM

SMILES: Cc1nc2ccc(N=NN(C)C)cc2[nH]1
- TGI [1]: > 100 µM
- TGI [3]: > 100 µM
- TGI [4]: > 100 µM
- TGI [5]: > 100 µM
- TGI [8]: > 100 µM
- TGI [6]: > 100 µM
- TGI [7]: > 100 µM
- TGI [10]: > 100 µM

SMILES: COc1ccc2c(c1)/C(=C\c1cccc(/C=C3/C(=O)Nc4ccc(OC)cc43)n1)C(=O)N2
- TGI [9]: 2.05 µM
- TGI [1]: 5.07 µM
- TGI [2]: 7.44 µM
- TGI [4]: 8.91 µM
- TGI [5]: 15.5 µM
- TGI [8]: 4.91 µM
- TGI [6]: 7.92 µM
- TGI [7]: 6.57 µM
- GI50 [10]: 0.703 µM
- TGI [10]: 2.28 µM

SMILES: COC(=O)c1cc(C#N)[nH]c1-c1cccs1
- TGI [1]: > 100 µM
- TGI [2]: > 100 µM
- TGI [3]: > 100 µM
- TGI [4]: > 100 µM
- TGI [8]: > 100 µM
- TGI [6]: > 100 µM
- TGI [10]: > 100 µM

SMILES: Cc1cc(NCC2CC/C(=C\C=C\c3ccccc3)C2=O)no1 (stereo unspecified)
- TGI [9]: > 100 µM
- TGI [1]: > 100 µM
- TGI [2]: > 100 µM
- TGI [4]: > 100 µM
- TGI [8]: > 100 µM
- TGI [6]: > 100 µM
- TGI [7]: > 100 µM
- TGI [10]: > 100 µM

SMILES: Cc1ccccc1NC(=O)/C(C#N)=N\Nc1nc[nH]c1C(N)=O
- TGI [9]: > 100 µM
- TGI [1]: > 100 µM
- TGI [3]: > 100 µM
- TGI [4]: > 100 µM
- TGI [5]: > 100 µM
- TGI [8]: > 100 µM
- TGI [6]: > 100 µM
- TGI [7]: > 100 µM
- TGI [10]: > 100 µM

Reference: PubChem BioAssay (NCI)
